According to the supplement of paper PMC10331698:
± gives the standard deviation of the averaged measurements.

How the values were obtained:
Test in all cases: level (log10 ratio to DMSO vehicle control); higher = higher biomarker level / cell amount than vehicle control
[1] = compound: C=CC(=O)OCC(F)(F)C(F)(F)C(F)(F)C(F)(F)COC(=O)C=C [1H,1H,6H,6H-Perfluorohexane-1,6-diol diacrylate]; conditions: 6700 nM; in DMSO
Experimental: (§1)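 BioMAP Diversity Plus panel of 12 human primary cell co-culture systems (3C, 4H, LPS, SAg, BT, BF4T, BE3C, CASM3C, HDF3CGF, KF3CT, MyoF, Mphg). Compounds were added 1 h before stimulation and left for 24 h (MyoF 48 h; BT 72 h for soluble read-outs or 6 d for IgG). Biomarkers were read by ELISA, cytotoxicity by SRB, PBMC viability and proliferation by Alamar Blue. Each well value was divided by the mean of 8 DMSO control wells on the same plate and log10 transformed; duplicate blinded samples were tested at 4 concentrations.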

[2] = compound: C=CC(=O)OCCC(F)(F)C(F)(F)C(F)(F)C(F)(F)C(F)(F)C(F)(F)C(F)(F)C(F)(F)F [8:2 Fluorotelomer acrylate]; conditions: in DMSO
Experimental: as §1

[3] = compound: Cc1ccc(S(=O)(=O)OCC(F)(F)C(F)(F)C(F)(F)C(F)(F)C(F)(F)C(F)F)cc1 [1H,1H,7H-Perfluoroheptyl 4-methylbenzenesulfonate]; conditions: in DMSO
Experimental: as §1

[4] = compound: O=C(O)C(F)(F)C(F)(F)C(F)(F)C(F)(F)C(F)(F)C(F)(F)C(F)(F)F [Ammonium perfluorooctanoate]; conditions: in DMSO
Experimental: as §1

[5] = compound: O=S(=O)(O)CCC(F)(F)C(F)(F)C(F)(F)C(F)(F)F [4:2 Fluorotelomer sulfonic acid]; conditions: in DMSO
Experimental: as §1

[6] = compound: OCC(F)(F)C(F)(F)C(F)(F)C(F)(F)C(F)(F)C(F)(F)F [6:1 Fluorotelomer alcohol]; conditions: in DMSO
Experimental: as §1

[7] = compound: OCCCCC(F)(F)C(F)(F)C(F)(F)C(F)(F)F [4:4 Fluorotelomer alcohol]; conditions: in DMSO
Experimental: as §1

Test System	level (log10) [1]	level (log10) ([2]; 6700 nM)	level (log10) ([2]; 20000 nM)	level (log10) ([2]; 60000 nM)	level (log10) ([3]; 6700 nM)	level (log10) ([3]; 20000 nM)	level (log10) ([3]; 60000 nM)	level (log10) ([4]; 6700 nM)	level (log10) ([4]; 20000 nM)	level (log10) ([4]; 60000 nM)	level (log10) ([5]; 6700 nM)	level (log10) ([5]; 20000 nM)	level (log10) ([5]; 60000 nM)	level (log10) ([6]; 6700 nM)	level (log10) ([6]; 20000 nM)	level (log10) ([6]; 60000 nM)	level (log10) ([7]; 6700 nM)	level (log10) ([7]; 20000 nM)	level (log10) ([7]; 60000 nM)
MyoF:bFGF	0.0155 ± 0.0064	-0.015 ± 0.0028	-0.015 ± 0.014	-0.0025 ± 0.0092	-0.0005 ± 0.0021	0.012 ± 0.0071	0.009 ± 0.017	0 ± 0.013	-0.007 ± 0.014	0.0015 ± 0.015	-0.001 ± 0.0071	0.0025 ± 0.028	0.0055 ± 0.022	-0.001 ± 0.0014	0.0005 ± 0.013	0.006 ± 0.011	0.0035 ± 0.0035	-0.009 ± 0.021	0.005 ± 0.042
lMphg:CCL2/MCP-1	-0.04 ± 0.061	0.0035 ± 0.021	-0.0025 ± 0.0064	-0.0235 ± 0.039	-0.033 ± 0.0014	-0.0345 ± 0.015	-0.0055 ± 0.026	0.0045 ± 0.016	0.005 ± 0.016	0.0065 ± 0.0021	0.0005 ± 0.047	0.006 ± 0.025	-0.001 ± 0.0071	-0.016 ± 0.0028	-0.046 ± 0.023	-0.02 ± 0.0071	-0.0295 ± 0.037	-0.0145 ± 0.00071	0.009 ± 0.0071
lMphg:CCL3/MIP-1alpha	-0.0045 ± 0.07	0.056 ± 0.011	0.0485 ± 0.047	0.0325 ± 0.025	-0.007 ± 0.0014	0.0145 ± 0.0021	0.0465 ± 0.033	0.003 ± 0.018	0.013 ± 0.024	0.0395 ± 0.029	0.047 ± 0.031	0.021 ± 0.054	0.0465 ± 0.042	0.009 ± 0.017	-0.0095 ± 0.036	0.0235 ± 0.083	-0.0205 ± 0.0035	-0.041 ± 0.021	-0.0365 ± 0.022
lMphg:CD40	-0.051 ± 0.024	-0.014 ± 0.025	-0.0065 ± 0.0078	-0.0225 ± 0.021	-0.009 ± 0.016	-0.0175 ± 0.0092	-0.0135 ± 0.005	0.0115 ± 0.053	-0.0145 ± 0.0092	-0.0585 ± 0.023	-0.008 ± 0.0028	-0.015 ± 0.021	-0.026 ± 0.011	-0.0065 ± 0.026	-0.0095 ± 0.019	-0.0235 ± 0.022	-0.0295 ± 0.005	-0.0195 ± 0.029	-0.0055 ± 0.033
lMphg:CD62E/E-Selectin	-0.044 ± 0.021	0.019 ± 0.038	0.0215 ± 0.0064	0.041 ± 0.034	-0.0225 ± 0.0064	0.022 ± 0.0014	0.0635 ± 0.019	-0.0205 ± 0.0021	-0.003 ± 0.058	0.0025 ± 0.022	-0.0235 ± 0.033	-0.0105 ± 0.061	-0.0105 ± 0.011	0.009 ± 0.024	-0.008 ± 0.011	-0.002 ± 0.023	-0.0275 ± 0.018	-0.012 ± 0.018	-0.0195 ± 0.04
lMphg:CD69	-0.06 ± 0.0042	-0.054 ± 0.017	-0.0565 ± 0.023	0.002 ± 0.079	-0.007 ± 0.016	-0.048 ± 0.027	-0.039 ± 0.062	-0.0285 ± 0.018	-0.0185 ± 0.028	-0.0715 ± 0.0064	-0.023 ± 0.0028	-0.014 ± 0.021	-0.044 ± 0.059	-0.007 ± 0.047	-0.038 ± 0.052	-0.055 ± 0.073	-0.0475 ± 0.04	-0.063 ± 0.018	-0.014 ± 0.045
lMphg:CD106/VCAM-1	-0.0445 ± 0.018	0 ± 0.013	-0.015 ± 0.0014	-0.0045 ± 0.03	-0.0105 ± 0.029	0.0045 ± 0.0021	0 ± 0.0071	0.0135 ± 0.0035	0.023 ± 0.0014	-0.0105 ± 0.0021	-0.0145 ± 0.0078	-0.0075 ± 0.011	-0.0135 ± 0.005	0.0035 ± 0.021	0.0035 ± 0.032	0.0115 ± 0.04	-0.0195 ± 0.005	-0.0045 ± 0.019	-0.0025 ± 0.042
lMphg:CXCL8/IL-8	0.0035 ± 0.0092	-0.009 ± 0.052	0.019 ± 0.035	0.0665 ± 0.029	0.022 ± 0.0057	0	0.022 ± 0.057	0.0185 ± 0.026	0.099 ± 0.0057	0.222 ± 0.033	-0.0295 ± 0.043	-0.0215 ± 0.021	0.005 ± 0.031	0.0335 ± 0.016	0.0395 ± 0.035	0.0375 ± 0.0092	-0.04 ± 0.035	-0.0355 ± 0.029	0.022 ± 0.021
